# Data: patent US20150231109A1, “COMBINATIONS (CATECHINS AND METHOTREXATE) FOR USE IN THE TREATMENT OF MELANOMAS” (UNIVERSIDAD DE MURCIA, priority 2012, published 2015)
# Read-outs that look alike come from different tables or passages of the source.
# What was measured:
# SK-MEL-28 cells = assay: Proliferation assay, SK-MEL-28; assay type: cell-based, human; conditions: SK-MEL-28, MTX alone
# Procedure: B, Proliferation assays performed of control or MTX/TMECG-treated (10 μM/1 μM) SK-MEL-28 cells. […] For time course assay MTX (1 μM) and TMECG (10 μM) were used. […] Data were obtained in triplicate in two independent experiments. […] H, effects of MTX/TMECG (1 μM/10 μM) on cell number of indicated cell lines. Error bars show mean±SD. […] Error bars show mean±SD.
# Melanoma cell lines of human and mouse origin were obtained from ATCC and maintained in the appropriate culture medium supplemented with 10% FBS and antibiotics. Cell viability was evaluated using the 3-(4,5-dimethylthiazol-2-yl)-2,5-diphenyltetrazolium bromide (MTT) cell proliferation assay.
# [1] = system: B16/F10 primary splenic tumors; assay: Primary spleen tumors after intrasplenic injection of luciferase-tagged B16/F10 cells; assay type: in vivo, mouse
# Procedure: C, Luciferase imaging of control and MTX/TMECG-treated mice 12 days post-tumor cell injection. Beetle luciferin (120 mg/kg of mouse) was injected intraperitoneally. The values (means±s.d.) are representative of three independent experiments. *P=0.007; **P=0.002. […] Xenograft tumors treated with DMSO (vehicle) or MTX/TMECG (1 mg/kg/day and 50 mg/kg/day, respectively) over 14-days. […] Representative images taken from two independent experiments (n=5 for each experiment). Scale bar=200 μm and is applicable to both panels. I, B16/F10 melanoma cells, expressing a luciferase reporter, were injected subcutaneously to mice. Mice were divided in two groups (n=7) and treated with vehicle (DMSO) or MTX/TMECG (1 mg/kg/day and 10 mg/kg/day, respectively) over 21-days. Then, tumors were pooled and dissociated. B16/F10 cells extracted from tumors were examined for their sensitivity to the MTX/TMECG combination (1 μM and 10 μM, respectively) using quantification of the luminescence signal (left panel). […] Scale bar refers to all panels. […] Mice were treated with vehicle, MTX (1 mg/kg/day), and/or TMECG (50 mg/kg/day). […] Scale bar refers to all panels.
# A, Luciferase imaging of vehicle (control), MTX, and/or TMECG-treated mice 12 days post-tumor cell injection. Firefly luciferin (120 mg/kg of mouse) was injected intraperitoneally. The values are representative of three independent experiments. […] The number of cells was estimated by extrapolation of the experimental luciferase signal to calibration curves. A straight line with a good linear correlation coefficient (0.998) was obtained by plotting luciferase signal vs number of B16/F10-luc2 cells. Treatment of mice (n=6) started 24 hr after tumor induction (Day 1). For all experiments: *p<0.05 with respect to control mice; #p<0.05 with respect to individual MTX or TMECG treatments.
# MITF = assay: ChIP assay, occupancy of MITF on TYR and Pmel17 genes in SK-MEL-28 cells; assay type: cell-based; conditions: Homo sapiens, SK-MEL-28, MTX 4 h
# Procedure: The ChIP assay was performed with the Magna ChIP™ G kit from Millipore according to the manufacturer's instructions. […] The cross-linked chromatin was then used for immunoprecipitation with MITF antibody, HDAC3 antibody (positive control) or mouse IgG (negative control). DNA from lysates prior to immunoprecipitation was used as positive input controls.
# IGR39 cells = assay: Matrigel Boyden chamber invasion assay, IGR39; assay type: cell-based; conditions: IGR39, MTX 72 h, 1 μM
# Procedure: FIGS. 1A-J. Methotrexate up-regulates the expression of MITF. A, The MITF rheostat, and the two-step strategy for melanoma therapy: Drug A induces MITF, driving cells to be sensitive to Drug B. B, MTX (1 μM) increases MITF mRNA determined using quantitative and conventional RT-PCR from indicated cell lines. […] C, MTX (1 μM) induces MITF protein assayed by western blotting (WB) (*P<0.05). D, Immunofluorescence of control or MTX-treated (3 h) 501 MEL cells using anti-MITF and DAPI. E, Matrigel assay of control and MTX-treated SKMEL-28 cells (48 h, 1 μM) and IGR39 (72 h, 1 μM) cells. […] Scale bar refers to all panels. F, Chromatin immunoprecipitation on TYR and Pmel17 genes of control and MTX-treated (4 h, 1 μM) SK-MEL-28 cells with qRT-PCR after immunoprecipitation with IgG, or MITF and HDAC3 antibodies. Error bars indicate standard deviations of triplicates; experiment reproduced four times with similar results. G, Scanning electron micrographs of control and MTX-treated (1 μM, 24 h) SK-MEL-28 cells. H, Semiquantitative RT PCR of TYR, TYRP1, Pmel17, MART1, and Rab27a mRNA. […]
# Invasion assays were performed using a cell invasion assay kit (BD Bioscience). […] The invading cells were stained and quantified measuring the surface occupied by stained cells with a cell counter plug-in of the Image J software.
# [2] = system: melanoma (SK-MEL-28, G361) cell lines; assay: MTX/TMECG synergy titration (apoptosis), melanoma cell lines; assay type: cell-based, human; conditions: apoptosis after 4 days
# Procedure: FIGS. 5A-D. The effects of MTX and/or TMECG on the growth of melanoma cell lines. A, Viability was determined by the MTT assay. Cells were treated with vehicle only (•), 10 μM TMECG ( ), 1 μM MTX (▴) or with a combination of 1 μM MTX+10 μM TMECG (▾). Table outlines p53, BRAF, NRAS, and PTEN status with specific amino acid substitutions. […] B, MTX/TMECG synergy test for melanoma and non-melanoma cancer cells in which drugs were combined in 6×6 matrices where the concentration of one drug was increased along each axis. The lowest concentration was 0 and the highest concentration was chosen close to the IC50 for each drug in each assayed cell line. Apoptosis was determined after 4 days of treatment. Data were obtained in triplicate in two independent experiments. […]
# The induction of apoptosis was assessed by performing cytoplasmic histone-associated DNA fragmentation using a kit from Roche Diagnostics (Barcelona, Spain). […] The amount of nucleosomes is photometrically quantified at 405 nm by the peroxidase activity retained in the immunocomplexes. Apoptosis was defined as the specific enrichment of mono- and oligonucleosomes in the cytoplasm and was calculated by dividing the absorbance of treated samples by the absorbance of untreated samples after correcting for the number of cells. […]
smiles,measurement,setting,value
"CN(Cc1cnc2nc(N)nc(N)c2n1)c1ccc(C(=O)N[C@@H](CCC(=O)O)C(=O)O)cc1 [MTX, methotrexate]",proliferation,SK-MEL-28 cells,reduced proliferation
same,necrotic areas in splenic tumors,"[1]; 14 days treatment, MTX 1 mg/kg/day and/or TMECG 50 mg/kg/day",4%±2%
same,effect on in vivo luciferase signal,"[1]; MTX or TMECG alone, 12 days post-tumor cell injection",around 2 fold
same,receptor occupancy at 1 µM,"MITF; untreated cells 1.5%, read-out: occupancy of MITF on the TYR promoter with respect to an input control",25.2%
same,receptor occupancy at 1 µM,"MITF; untreated cells 5.4%, read-out: occupancy of MITF on the promoter/enhancer of the Pmel17 gene with respect to an input control",45.4%
same,invasiveness,IGR39 cells,eliminated invasiveness
same,"sensitivity to MTX alone, melanoma versus non-melanoma lines",[2],substantially less sensitive
